How the values were obtained:
Experiment in all cases: relative viability (nuclei count vs DMSO), 5 days (fraction); higher = more cells survive
[1] = compound: C[C@@H](N)c1ccc(C(=O)Nc2ccnc3[nH]ccc23)cc1 + CC(=O)Nc1cccc(-n2c(=O)n(C3CC3)c(=O)c3c(Nc4ccc(I)cc4F)n(C)c(=O)c(C)c32)c1 [Trametinib] (partner 0.02 µM)
Procedure, shortened: (§1)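 Relative viability equals treated-well nuclei counts divided by vehicle-well nuclei counts. Counts came from 4× images of lung cancer cell lines grown in 1536-well plates for 5 days after pin-tool dosing on the day after seeding. Dosing used one drug alone or a fixed anchor-drug dose plus five library-drug doses (not always all listed) in √10 steps, and values are medians of duplicate plates.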

[2] = compound: C1CNCCC1C2=CC(=NN2)C3=CC=NC=C3 + Cc1nc(NC(=O)N2CCC[C@H]2C(N)=O)sc1-c1ccnc(C(C)(C)C(F)(F)F)c1 [Alpelisib] (partner 2 µM)
Procedure, shortened: as §1

Tanzisertib + Lapatinib = compound: O[C@H]1CC[C@H](Nc2ncc3nc(Nc4c(F)cc(F)cc4F)n([C@H]4CCOC4)c3n2)CC1 [Tanzisertib] + CS(=O)(=O)CCNCc1ccc(-c2ccc3ncnc(Nc4ccc(OCc5cccc(F)c5)c(Cl)c4)c3c2)o1 [Lapatinib] (partner 2 µM)
Procedure, shortened: as §1

[3] = compound: C[C@@H](N)c1ccc(C(=O)Nc2ccnc3[nH]ccc23)cc1 + O=C(c1cc(Cc2n[nH]c(=O)c3ccccc23)ccc1F)N1CCN(C(=O)C2CC2)CC1 [Olaparib] (partner 8 µM)
Procedure, shortened: as §1

| Cell Line | relative viability ([1]; first compound 0.04 µM) | relative viability ([1]; first compound 0.1265 µM) | relative viability ([1]; first compound 0.4 µM) | relative viability ([1]; first compound 4 µM) | relative viability ([2]; first compound 0.08 µM) | relative viability ([2]; first compound 0.8 µM) | relative viability ([2]; first compound 2.53 µM) | relative viability ([2]; first compound 8 µM) | relative viability (Tanzisertib + Lapatinib; first compound 0.08 µM) | relative viability (Tanzisertib + Lapatinib; first compound 0.253 µM) | relative viability (Tanzisertib + Lapatinib; first compound 0.8 µM) | relative viability (Tanzisertib + Lapatinib; first compound 2.53 µM) | relative viability (Tanzisertib + Lapatinib; first compound 8 µM) | relative viability ([3]; first compound 0.04 µM) | relative viability ([3]; first compound 0.1265 µM) | relative viability ([3]; first compound 0.4 µM) | relative viability ([3]; first compound 1.265 µM) | relative viability ([3]; first compound 4 µM) | relative viability ([1]; first compound 1.265 µM) |
| --- | --- | --- | --- | --- | --- | --- | --- | --- | --- | --- | --- | --- | --- | --- | --- | --- | --- | --- | --- |
| PC-14 | 0.736 | 0.656 | 0.497 | 0.431 | 0.938 | 0.913 | 1.1 | 0.923 | 0.34 | 0.303 | 0.26 | 0.341 | 0.311 | 0.281 | 0.233 | 0.263 | 0.29 | 0.271 |  |
| RERF-LC-KJ | 0.902 | 0.972 | 0.971 | 0.873 | 0.803 | 0.709 | 0.963 | 0.89 | 0.872 | 0.873 | 0.884 | 0.8 | 0.892 | 0.879 | 0.906 | 0.894 | 0.934 | 0.86 | 0.96 |
| SK-LU-1 | 0.422 | 0.506 | 0.625 | 0.473 | 1.08 | 1.06 | 1.05 | 0.942 | 1.1 | 0.869 | 0.855 | 0.994 | 0.816 | 0.459 | 0.446 | 0.436 | 0.321 | 0.376 | 0.299 |
| SK-MES-1 | 0.607 | 0.523 | 0.458 | 0.401 | 0.961 | 0.688 | 0.903 | 0.885 | 0.49 | 0.438 | 0.455 | 0.509 | 0.466 | 0.813 | 0.834 | 0.697 | 0.639 | 0.638 | 0.488 |
| SW 1573 | 0.767 | 0.615 | 0.598 | 0.529 | 0.722 | 0.625 | 0.774 | 0.755 | 0.625 | 1.09 | 1 | 1.01 | 1.1 | 0.534 | 0.531 | 0.446 | 0.44 | 0.361 | 0.56 |
